As usually defined, the inhibition is the relative decrease from the control value, in per cent. Broadly, the IC50 is the concentration at which inhibition is half-maximal.

Where only a bound is given, the exact number is not on record here.

Twelve compounds from US9169215B2, “LPAR—substituted cyanopyrazole compounds” (Hoffmann-La Roche Inc., priority 2012, dated 2015) can be followed below.

Experiment [1] addresses human recombinant LPA1 Lysophospholipid receptor (Homo sapiens, UniProt Q92633). The experiment in a line: Calcium flux assay using FLIPR, LPA1 antagonist activity. The experiment is classed as cell-based. The settings on record: for IC50: ChemiScreen calcium-optimized stable cell line, inhibition of agonist-induced calcium flux. The procedure:
(§1) Calcium Flux Assay Using Fluorometric Imaging Plate Reader (FLIPR)
Cell Culture Conditions: The ChemiScreen Calcium-optimized stable cell line containing the human recombinant LPA1 Lysophospholipid receptor was purchased from Chemicon International, Inc./Millipore. The cells were cultured in DMEM-high glucose supplemented with 10% fetal bovine serum, 2 mM glutamine, 100 U/mL penicillin/100 μg/mL streptomycin, 1× non-essential amino acids, 10 mM HEPES and 0.25 mg/mL Geneticin. Cells were harvested with trypsin-EDTA and counted using ViaCount reagent. The cell suspension volume was adjusted to 2.0×10^5 cells/mL with complete growth media. Aliquots of 50 μL were dispensed into 384 well black/clear tissue culture treated plates (BD) and the microplates were placed in a 37° C. incubator overnight. The following day plates were used in the assay.
Dye Loading and Assay: Loading Buffer (FLIPR Calcium-4, Molecular Devices) was prepared by dissolving the contents of one bottle into 100 mL Hank's Balanced Salt Solution containing 20 mM HEPES and 2.5 mM probenecid. Plates were loaded onto Biotek plate washer and growth media was removed and replaced with 20 μL of Hank's Balanced Salt Solution containing 20 mM HEPES and 2.5 mM probenecid, followed by 25 μL of Loading Buffer. The plates were then incubated for 30 minutes at 37° C.
During the incubation, test compounds were prepared by adding 90 μL of HBSS/20 mM HEPES/0.1% BSA buffer to 2 μL of serially diluted compounds. To prepare serial dilutions, 10 mM stocks of compounds were prepared in 100% DMSO. The compound dilution plate was set up as follows: well #1 received 29 μL of stock compound and 31 μL DMSO; wells 2-10 received 40 μL of DMSO; mixed and transferred 20 μL of solution from well #1 into well #2; continued with 1:3 serial dilutions out 10 steps; transferred 2 μL of diluted compound into duplicate wells of 384 well “assay plate” and then added the 90 μL of buffer.
(§2) After incubation, both the cell and “assay” plates were brought to the FLIPR and 20 μL of the diluted compounds were transferred to the cell plates by the FLIPR. Compound addition was monitored by FLIPR to detect any agonist activity of the compounds. Plates were then incubated for 30 minutes at RT protected from light. After the incubation, plates were returned to the FLIPR and 20 μL of 4.5× concentrated agonist was added to the cell plates. During the assay, fluorescence readings were taken simultaneously from all 384 wells of the cell plate every 1.5 seconds. Five readings were taken to establish a stable baseline, then 20 μL of sample was rapidly (30 μL/sec) and simultaneously added to each well of the cell plate. The fluorescence was continuously monitored before, during and after sample addition for a total elapsed time of 100 seconds. Responses (increase in peak fluorescence) in each well following agonist addition was determined. The initial fluorescence reading from each well, prior to ligand stimulation, was used as zero baseline value for the data from that well. The responses were expressed as % inhibition of the buffer control.
A general note: A change in cytosolic calcium serves as a functional read-out for many receptors and channels.

Another experiment deals with T1, LPA3 (Homo sapiens, UniProt Q9UBY5).
T1 sequence (Q9UBY5 1-353): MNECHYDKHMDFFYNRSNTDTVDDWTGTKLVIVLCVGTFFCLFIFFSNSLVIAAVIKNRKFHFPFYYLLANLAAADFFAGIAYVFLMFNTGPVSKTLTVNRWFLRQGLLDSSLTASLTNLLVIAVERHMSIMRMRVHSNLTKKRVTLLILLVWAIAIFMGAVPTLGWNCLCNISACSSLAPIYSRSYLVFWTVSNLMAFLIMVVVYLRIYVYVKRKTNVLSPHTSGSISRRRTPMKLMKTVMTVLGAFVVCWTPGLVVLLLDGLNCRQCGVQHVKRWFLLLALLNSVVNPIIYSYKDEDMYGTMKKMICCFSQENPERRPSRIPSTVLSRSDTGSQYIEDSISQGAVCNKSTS
Nature of the experiment: Calcium flux assay using FLIPR, LPA3 antagonist activity. It is filed as cell-based. Here is the method: as §1, §2

Chain of human recombinant LPA1 Lysophospholipid receptor (Q92633 whole entry): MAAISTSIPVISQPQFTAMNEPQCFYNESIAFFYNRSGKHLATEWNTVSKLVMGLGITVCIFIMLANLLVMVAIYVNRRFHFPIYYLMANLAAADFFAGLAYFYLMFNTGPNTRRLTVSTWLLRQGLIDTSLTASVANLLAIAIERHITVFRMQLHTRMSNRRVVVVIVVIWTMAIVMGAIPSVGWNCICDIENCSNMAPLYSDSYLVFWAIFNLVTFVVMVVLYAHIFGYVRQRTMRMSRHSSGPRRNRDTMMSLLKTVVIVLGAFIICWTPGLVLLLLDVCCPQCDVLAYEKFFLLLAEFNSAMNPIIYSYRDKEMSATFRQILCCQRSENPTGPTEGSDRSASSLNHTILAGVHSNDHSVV

Take `COc1ccc(C(=O)/C(=N\C2CCCC2)n2ncc(C#N)c2N)c(OC)c1` [Example 1, (E)-5-Amino-1-(1-(cyclopentylimino)-2-(2,4-dimethoxyphenyl)-2-oxoethyl)-1H-pyrazole-4-carbonitrile]: in experiment [1], the inhibition at 30 µM was determined as 98% and the 50% inhibitory concentration (IC50) stood at 79.8 nM. On LPA3, the inhibition at 30 µM stood at 22%.
With `CCc1ccc(C(=O)/C(=N\C2CCCC2)n2ncc(C#N)c2N)cc1` [Example 2, (E)-5-Amino-1-(1-(cyclopentylimino)-2-(4-ethylphenyl)-2-oxoethyl)-1H-pyrazole-4-carbonitrile], in experiment [1], the inhibition at 30 µM is 100% and the IC50 amounted to 586 nM. Also, at LPA3, the inhibition at 30 µM stood at 13%.
Taken in the same sequence, the figures for `N#Cc1cnn(/C(=N/C2CCCC2)C(=O)c2ccc(Br)cc2)c1N` [Example 3, (E)-5-Amino-1-(1-(cyclopentylimino)-2-(4-bromophenyl)-2-oxoethyl)-1H-pyrazole-4-carbonitrile] were 96%, 2940 nM and less than 1%.
In the case of `COc1cc(F)ccc1C(=O)/C(=N\C1CCCC1)n1ncc(C#N)c1N` [Example 4, (E)-5-Amino-1-(1-(cyclopentylimino)-2-(4-fluoro-2-methoxyphenyl)-2-oxoethyl)-1H-pyrazole-4-carbonitrile], the inhibition at 30 µM turned out to be 49% in experiment [1] and 3% on LPA3.
Regarding `COc1ccc(C(=O)/C(=N\C2CCCC2)n2ncc(C#N)c2N)c(F)c1` [Example 5, (E)-5-Amino-1-(1-(cyclopentylimino)-2-(2-fluoro-4-methoxyphenyl)-2-oxoethyl)-1H-pyrazole-4-carbonitrile], in experiment [1], the inhibition at 30 µM is 99.8% and the IC50 stood at 74 nM. Besides, the inhibition at 30 µM on LPA3 was less than 5%.
`COc1cc(OC)c(C(=O)/C(=N\C2CCCC2)n2ncc(C#N)c2N)cc1OC` [Example 6, (E)-5-Amino-1-(1-(cyclopentylimino)-2-(2,4,5-trimethoxyphenyl)-2-oxoethyl)-1H-pyrazole-4-carbonitrile]: the inhibition at 10 µM in experiment [1] (@ 10 μM) was 79.2%. For the same compound, the IC50 in experiment [1] came to 3360 nM. Besides, the inhibition at 30 µM at LPA3 came to 7.5%.
Regarding `COc1cc2ccccc2cc1C(=O)/C(=N\C1CCCC1)n1ncc(C#N)c1N` [Example 7, (E)-5-Amino-1-(1-(cyclopentylimino)-2-(3-methoxynaphthalen-2-yl)-2-oxoethyl)-1H-pyrazole-4-carbonitrile], in experiment [1], the inhibition at 30 µM came to 77.5% and the half-maximal inhibitory concentration (IC50) is 806 nM. The inhibition at 30 µM on LPA3 was determined as 2%.
Taken in the same sequence, the figures for `COc1cc2c(cc1C(=O)/C(=N\C1CCCC1)n1ncc(C#N)c1N)CCC2` [Example 8, (E)-5-Amino-1-(1-(cyclopentylimino)-2-(6-methoxy-2,3-dihydro-1H-inden-5-yl)-2-oxoethyl)-1H-pyrazole-4-carbonitrile] were 78.4%, 825 nM and 19.1%.
On the same counts, the results for `COc1ccc(C(=O)/C(=N\C2CCCCC2)n2ncc(C#N)c2N)c(OC)c1` [Example 9, (E)-5-Amino-1-(1-(cyclohexylimino)-2-(2,4-dimethoxyphenyl)-2-oxoethyl)-1H-pyrazole-4-carbonitrile] are 84.9%, 510 nM and 29%.
Taken in the same sequence, the figures for `COc1ccc(C(=O)/C(=N\C(C)C)n2ncc(C#N)c2N)c(OC)c1` [Example 10, (E)-5-Amino-1-(2-(2,4-dimethoxyphenyl)-1-(iso-propylimino)-2-oxoethyl)-1H-pyrazole-4-carbonitrile] were 88.2%, 111 nM and 21%.
As to `COc1cc(OCc2ccccc2)ccc1C(=O)/C(=N\C1CCCC1)n1ncc(C#N)c1N` [Example 11, (E)-5-Amino-1-(2-(4-benzyloxy-2-methoxyphenyl)-1-(cyclopentylimino)-2-oxoethyl)-1H-pyrazole-4-carbonitrile], the inhibition at 30 µM in experiment [1] amounted to 48%; at LPA3 it was 23%.
Regarding `COc1cc(C(=O)/C(=N\C2CCCC2)n2ncc(C#N)c2N)cc(OC)c1OC` [Example 12, (E)-5-Amino-1-(1-(cyclopentylimino)-2-(3,4,5-trimethoxyphenyl)-2-oxoethyl)-1H-pyrazole-4-carbonitrile], the inhibition at 5 µM in experiment [1] (@ 5 μM) worked out at 13%. Further, the inhibition at 30 µM on LPA3 came out at 14%.
